Values joined by “and” are separate entries in the source; they are usually repeats but may differ in a detail not shown here. Identical values can stand only once. Like-named read-outs stand apart in the source and are kept apart here.
How the values were obtained:
[1] = tested on: yellow fever virus (YFV 17D strain); test: microbe, parasite or virus in culture; format: cell-based
[2] = tested on: dengue virus 2 (New Guinea C strain); test: microbe, parasite or virus in culture; format: cell-based
Vero cells = settings: African green monkey
[3] = tested on: measles virus (CC strain); test: microbe, parasite or virus in culture; format: cell-based
in vitro [4] = settings: human
[5] = tested on: influenza A (H1N1) virus (California/07/2009 strain); test: microbe, parasite or virus in culture; format: cell-based; settings: for EC50: read-out: EC50 California/07/2009 strain
in vitro [6] = settings: African green monkey
[7] = tested on: tacaribe virus (TRVL11573 strain); test: microbe, parasite or virus in culture; format: cell-based; settings: read-out: Tacaribe virus EC50 TRVL 11573 strain
MERS-CoV (EMC strain) = test: microbe, parasite or virus in culture; format: cell-based
in vitro [8] = settings: African green monkey, Tacaribe virus CC50 Vero
[9] = tested on: chikungunya virus (S27 strain); test: microbe, parasite or virus in culture; format: cell-based
[10] = Cytotoxicity in the human norovirus replicon assay (HG23 cells); settings: human, HG23 Nov replicon cells
in vitro [11] = settings: dog, CC50 MDCK
[12] = tested on: human norovirus genogroup I NoV (Norwalk virus replicon) in HG23 cells; test: Human norovirus antiviral assay, qRT PCR in HG23 NoV replicon cells; format: cell-based; settings: for EC50: HG23 Nov replicon cells, qRT PCR intracellular RNA, read-out: EC50 human norovirus
[13] = tested on: enterovirus-71 (Tainan/4643/98 strain); test: organism not typed; format: cell-based
HG23 Nov replicon cells = test: Cytotoxicity in the human norovirus replicon assay (HG23 cells); settings: read-out: CC50 human norovirus assay
[14] = tested on: tacaribe virus (TRVL11573 strain); format: cell-based
[15] = tested on: enterovirus-71 (Tainan/4643/98 strain); test: Secondary assay (virus yield reduction / neutral red CPE) against enterovirus-71 in Vero 76 cells; format: cell-based; settings: for EC50: Vero 76, Neutral Red (Cytopathic effect/Toxicity); for EC90: Vero 76, Visual (Virus yield reduction)
[16] = Yellow fever virus, Huh-7, read-out: Yellow fever virus EC50 YFV 17D strain
[17] = Dengue virus, Huh-7, read-out: EC50 dengue virus 2
[18] = Measles morbillivirus, Vero 76, read-out: Measles EC50 CC strain
[19] = read-out: Measles EC50 CC strain
[20] = read-out: MERS-CoV CC50 Vero 76, Neutral Red, MERS-CoV screen
[21] = Mammarenavirus tacaribeense, Vero
[22] = Middle East respiratory syndrome-related coronavirus, Vero 76, read-out: MERS-CoV EC50 EMC strain
[23] = Chikungunya virus, Vero 76, read-out: EC50 chikungunya virus
[24] = read-out: Yellow fever virus CC50 Huh7, Neutral Red, YFV screen
[25] = Vero 76, read-out: EC50 enterovirus-71
[26] = read-out: Yellow fever virus EC50 YFV 17D strain
[27] = read-out: MERS-CoV CC50 Vero 76, Visual, MERS-CoV screen
[28] = read-out: MERS-CoV EC50 EMC strain
[29] = read-out: Yellow fever virus CC50 Huh7, Visual, YFV screen

Compound | EC50 [1, 16] | EC50 [2, 17] | EC50 ([2]; read-out: EC50 dengue virus 2) | CC50 (Vero cells) | EC50 [3, 18] | EC50 [3, 19] | CC50 (in vitro [4]; CC50) | CC50 (in vitro [4]; Yellow fever virus CC50 Huh7) | EC50 ([5]; Influenza A virus, H1N1, MDCK) | CC50 (Vero 76 cells; [20]) | CC50 (in vitro [6]; MERS-CoV CC50 Vero 76) | CC50 (in vitro [6]; Measles CC50 Vero 76) | EC50 [7, 21] | EC50 [7] | CC50 (in vitro [8]) | CC50 at 3 days [10] | CC50 (in vitro [11]) | CC50 (Huh7 cells; [24]) | EC50 ([12]; Norwalk virus) | EC50 [5] | further results
OC[C@H]1O[C@@H](n2ccc3c(C4CC4)ncnc32)[C@H](O)[C@@H]1O [3.1a, 6-Cyclopropyl-9-β-D-ribofuranosyl-7-deazapurine, reference compound] | > 100 µM | 32 µM | 45 µM | > 100 µM | 63 µM | 56 µM | > 100 µM | 100 µM | > 100 µM | > 100 µM | > 100 µM | 100 µM | 100 µM | > 100 µM | 100 µM | > 100 µM | > 100 µM | > 100 µM | 2.52 µM | – | activity against influenza A (H1N1) in words [5]: not active; CC50 (Vero 76 cells; African green monkey): > 100 µM; EC50 (MERS-CoV (EMC strain); [22]): > 100 µM; activity against chikungunya virus in words [9]: inactive; EC50 [9, 23]: > 100 µM; EC50 [13, 25]: > 100 µM
OC[C@H]1O[C@@H](n2ccc3c(C#CC4CC4)ncnc32)[C@H](O)[C@@H]1O [3.1c, 6-Cydopropylethynyl-9-β-D-ribofuranosyl-7-deazapurine] | – | – | – | – | – | 0.97 µM and 1 µM | – | – | – | > 100 µM | – | – | – | 0.68 µM | – | – | – | 60 µM | – | 11 µM and 8.2 µM | EC50 [1, 26]: 0.86 µM and 1.8 µM; activity against influenza A (H1N1) in words [5]: moderate activity; CC50 (Vero 76 cells): > 100 µM; CC50 (Vero 76 cells; [27]): 100 µM; activity against MERS-CoV in words (MERS-CoV (EMC strain)): moderately active with low selectivity index; EC50 (MERS-CoV (EMC strain); [28]): 10 µM and 6.7 µM; EC50 ([9]; read-out: EC50 chikungunya virus): > 100 µM; CC50 (MDCK cells): > 100 µM; CC50 (HG23 Nov replicon cells): 17.5 µM; EC50 [14]: 1.1 µM; EC90 [14]: 0.65 µM; CC50 (Huh7 cells; [29]): 32 µM; EC50 [12]: 0.13 µM and 0.126 µM; activity against enterovirus-71 in words [13]: inactive; EC50 ([13]; read-out: EC50 enterovirus-71): > 100 µM
CC#Cc1ncnc2c1ccn2[C@@H]1O[C@H](CO)[C@@H](O)[C@H]1O [3.1d, 6-(Prop-1-yn-1-yl)-9-β-D-ribofuranosyl-7-deazapurine] | 2.9 µM | 0.32 µM | 0.37 µM | 4.2 µM | > 3.6 µM | > 3.4 µM | 3.6 µM | – | 3.2 µM | 3.3 µM | 3.2 µM | 3.6 µM | 3.2 µM | 2.2 µM | 5.2 µM | 17.4 µM | 6.1 µM | 1.8 µM | 0.006 µM | 2.9 µM | EC50 [1, 26]: > 1.8 µM; CC50 (Vero 76 cells; African green monkey): 3.4 µM; CC50 (MDCK cells; dog): 4.9 µM; CC50 (Huh7 cells; human): 3.7 µM; CC50 (Huh7 cells; [29]): 12 µM; activity against human norovirus in words [12]: low nanomolar activity and high selectivity
CC(C)C#Cc1ncnc2c1ccn2[C@@H]1O[C@H](CO)[C@@H](O)[C@H]1O [3.1e, 6-(3-Methylbut-1-yn-1-yl)-9-β-D-ribofuranosyl-7-deazapurine] | 9.2 µM | 3.2 µM | 1.8 µM | 7.3 µM | 3.2 µM | 2.4 µM | 24 µM | 28 µM | 3.2 µM | > 100 µM | > 100 µM | 34 µM | 1.3 µM | 1 µM | 10 µM | 39.5 µM | – | – | 0.396 µM | 3 µM | EC50 (MERS-CoV (EMC strain); [22]): 11 µM; EC50 (MERS-CoV (EMC strain); [28]): 14 µM; EC50 [9, 23]: > 100 µM; EC50 [15]: 4 µM; EC90 [15]: 4.6 µM; CC50 (Huh7 cells; human): 21 µM; EC50 [13, 25]: 4.2 µM; EC50 ([13]; read-out: EC50 enterovirus-71): 4.3 µM
CCCC#Cc1ncnc2c1ccn2[C@@H]1O[C@H](CO)[C@@H](O)[C@H]1O [3.1f, 6-(Pent-1-yn-1-yl)-9-β-D-ribofuranosyl-7-deazapurine] | – | 0.75 µM | 0.96 µM | 9.9 µM | 3.2 µM | 3.7 µM | 12 µM | 28 µM | 2.2 µM | 110 µM | – | 63 µM | 1.6 µM | 1.8 µM | 10 µM | 38.7 µM | 9.1 µM | 31 µM | 0.002 µM | 2.3 µM | CC50 (Vero 76 cells; [27]): 19 µM; CC50 (in vitro [6]; CC50): > 100 µM; CC50 (MDCK cells; dog): 5.1 µM; EC50 [15]: 29 µM; EC90 [15]: 17 µM; CC50 (Huh7 cells; human): 11 µM; activity against human norovirus in words [12]: low nanomolar activity and high selectivity; EC50 [13, 25]: 2.2 µM; EC50 ([13]; read-out: EC50 enterovirus-71): 1.6 µM
